Literature values, collected in PubChem BioAssay AID1259409 (Chemical Carcinogenesis Research Information System (CCRIS), 2018).

System: rodent chemically induced tumor inhibition, incidence and multiplicity
Test: CCRIS tumor inhibitor studies
Conditions: Carcinogen: BENZO[A]PYRENE, 50-32-8, Route [Inhibitor]: DERMAL, Species: MOUSE, Strain/Sex: ICR/FEMALE, Dose [Carcinogen]: 5 UG IN 0.1 ML ACETONE 3/WK FOR DURATION OF STUDY, Promoter: NONE USED

c1cc2ccc3cccc4ccc(c1)c2c34
tumour outcome (control, treated, inhibition, significance) (Dose [Inhibitor]: 4 UG IN 0.1 ML ACETONE 3/WK ADMINISTERED SIMULTANEOUSLY WITH CARCINOGEN FOR DURATION OF STUDY (STUDY DURATION: 368 D), Target Tissue: Type of Lesion: SKIN: PAPILLOMA): 14/50 (28%), 12/50 (24%), 14%, not calculated | tumour outcome (control, treated, inhibition, significance) (Dose [Inhibitor]: 4 UG IN 0.1 ML ACETONE 3/WK ADMINISTERED SIMULTANEOUSLY WITH CARCINOGEN FOR DURATION OF STUDY (STUDY DURATION: 368 D), Target Tissue: Type of Lesion: SKIN: SQUAMOUS CARCINOMA): 10/50 (20%), 6/50 (12%), 40%, not calculated | tumour outcome (control, treated, inhibition, significance) (Dose [Inhibitor]: 12 UG IN 0.1 ML ACETONE 3/WK ADMINISTERED SIMULTANEOUSLY WITH CARCINOGEN FOR DURATION OF STUDY (STUDY DURATION: 368 D), Target Tissue: Type of Lesion: SKIN: PAPILLOMA): 14/50 (28%), 26/50 (52%), -86%, not calculated | tumour outcome (control, treated, inhibition, significance) (Dose [Inhibitor]: 12 UG IN 0.1 ML ACETONE 3/WK ADMINISTERED SIMULTANEOUSLY WITH CARCINOGEN FOR DURATION OF STUDY (STUDY DURATION: 368 D), Target Tissue: Type of Lesion: SKIN: SQUAMOUS CARCINOMA): 10/50 (20%), 20/50 (40%), -100%, not calculated | tumour outcome (control, treated, inhibition, significance) (Dose [Inhibitor]: 40 UG IN 0.1 ML ACETONE 3/WK ADMINISTERED SIMULTANEOUSLY WITH CARCINOGEN FOR DURATION OF STUDY (STUDY DURATION: 440 D), Target Tissue: Type of Lesion: SKIN: PAPILLOMA): 16/50 (32%), 35/50 (70%), -119%, not calculated | tumour outcome (control, treated, inhibition, significance) (Dose [Inhibitor]: 40 UG IN 0.1 ML ACETONE 3/WK ADMINISTERED SIMULTANEOUSLY WITH CARCINOGEN FOR DURATION OF STUDY (STUDY DURATION: 440 D), Target Tissue: Type of Lesion: SKIN: SQUAMOUS CARCINOMA): 12/50 (24%), 26/50 (52%), -117%, not calculated
